Values quoted from earlier work in patent US7604823B2, “Synergistic HIV/AIDS and/or immune disease phyto-nutraceutical composition” (priority 2006, dated 2009).
Entries after “also recorded” stand apart in the source; their conditions may differ.

Legend:
HIV [1] = conditions: human, in vivo
HIV-1 PR = HIV-1 PR (Human immunodeficiency virus type 1 group M subtype B, UniProt P04585)
HIV [2] = tested on: HIV
[3] = tested on: HIV-1-infected cells (CEM/LAV-1)
HIV [4] = conditions: after administration, no antiretroviral medications
HIV-1 [5] = tested on: HIV-1
[6] = tested on: HIV-1 LTR-directed gene expression; conditions: concentrations that have minor effects on cells
[7] = tested on: cells either acutely or chronically infected with HIV-1; conditions: cells acutely or chronically infected with HIV-1
[8] = target: HIV-1 reverse transcriptase (Human immunodeficiency virus type 1 group M subtype B, UniProt P04585)
[9] = tested on: bacterial resistance mechanism (multidrug pump); conditions: in the presence of 5′-MHC
HIV-1 [10] = conditions: prolonged period

O=c1[nH]cnc2c1ncn2[C@H]1CC[C@@H](CO)O1 [ddI, didanosine]
mean change of CD4 cells/mm3 (HIV [1]): decrease

C[C@H](CC(=O)C[C@@H](C)[C@H]1CC(=O)[C@@]2(C)C3=C(C(=O)C[C@]12C)[C@@]1(C)CCC(=O)C(C)(C)[C@@H]1C[C@@H]3O)C(=O)O [ganoderic acid C1]
inhibition of HIV-1 protease (HIV-1 PR): moderately active

CO[C@@H]1C=C2[C@@H]3CC[C@H]([C@H](C)C=C[C@H](C)C(C)C)[C@@]3(C)CC[C@@H]2[C@@]2(C)CC[C@H](O)C[C@]12O [3 beta-5 alpha-dihydroxy-6beta-methoxyergosta-7,22-diene]
inhibition of HIV-1 protease (HIV-1 PR): moderately active

lentinan
tolerability (HIV [2]; HIV-positive patients): good tolerability | CD4 cells (HIV [2]; human, in vivo): trend toward increases

CC(CC(=O)C[C@@H](C)[C@H]1CC(=O)[C@@]2(C)C3=C(C(=O)C[C@]12C)[C@@]1(C)CC[C@H](O)C(C)(C)[C@@H]1C[C@@H]3O)C(=O)O (stereo partly drawn) [ganoderic acid B]
inhibition of HIV-1 protease (HIV-1 PR): moderately active

C=CCSSCC=C [Allyl disulfide]
cell proliferation of HIV-1-infected cells [3]: strongly depressed

C=C1CC[C@@H]2[C@](C)(CO)[C@H](O)CC[C@@]2(C)[C@@H]1C/C=C1/C(=O)OC[C@H]1O [andrographolide]
mean CD4(+) lymphocyte level of HIV subjects (HIV [4]): significant rise

C[C@H](CC[C@H](O)C(C)(C)O)[C@H]1CC[C@@]2(C)C3=CC[C@H]4C(C)(C)C(=O)CC[C@]4(C)C3=CC[C@]12C [ganodermanondiol]
inhibition of HIV-1 protease (HIV-1 PR): significant

C[C@H](CC[C@H](O)[C@](C)(O)CO)[C@H]1CC[C@@]2(C)C3=CC[C@H]4C(C)(C)C(=O)CC[C@]4(C)C3=CC[C@]12C [ganodermanontriol]
activity as anti-HIV-1 agents (HIV-1 [5]): active | inhibition of HIV-1 protease (HIV-1 PR): significant

CC1(C)CCC2=C(O1)c1ccccc1C(=O)C2=O [beta-lapachone]
inhibition of HIV-1 LTR-directed gene expression [6]: potent and selective inhibitor | p24 antigen production [7]: inhibited

COc1ccc2cc3[n+](cc2c1OC)CCc1cc2c(cc1-3)OCO2 [Berberine]
inhibition of HIV-1 reverse transcriptase [8]: inhibits

C[C@H](CC[C@H](O)C(C)(O)CO)[C@H]1CC[C@@]2(C)C3=CC[C@H]4C(C)(C)[C@@H](O)CC[C@]4(C)C3=CC[C@]12C (stereo partly drawn) [ganoderiol A]
inhibition of HIV-1 protease (HIV-1 PR): moderately active

COc1cc([C@H]2Oc3cc(-c4cc(=O)c5c(O)cc(O)cc5o4)cc(OC)c3O[C@@H]2CO)ccc1O (racemic) [5′-MHC, 5′-methoxyhydnocarpin]
accumulation of berberine in the cells [9]: strong increase

C[C@H](CCC=C(CO)CO)[C@H]1C[C@H](O)[C@@]2(C)C3=CC[C@H]4C(C)(C)C(=O)CC[C@]4(C)C3=CC[C@]12C [ganoderiol B]
inhibition of HIV-1 protease (HIV-1 PR): moderately active

CC(=O)O[C@@H]1C(=O)C2=C(C(=O)C[C@H]3C(C)(C)[C@@H](O)CC[C@]23C)[C@]2(C)C(=O)C[C@H]([C@H](C)CC(=O)CC(C)C(=O)O)[C@@]12C (stereo partly drawn) [ganoderic acid H]
inhibition of HIV-1 protease (HIV-1 PR): moderately active

C/C(=C\CC[C@@H](C)[C@H]1CC(=O)[C@@]2(C)C3=C(C(=O)C[C@]12C)[C@@]1(C)CC[C@H](O)C(C)(C)[C@@H]1C[C@@H]3O)C(=O)O [Ganoderic acid beta]
inhibition of HIV-1 protease (HIV-1 PR): significant

CC(=O)OC1C(=O)C2=C(C(=O)CC3C(C)(C)[C@@H](O)CC[C@]23C)[C@]2(C)[C@H](O)C[C@H]([C@H](C)CC(=O)CC(C)C(=O)O)[C@@]12C (stereo partly drawn) [ganoderic acid alpha]
inhibition of HIV-1 protease (HIV-1 PR): moderately active

Cc1cn([C@H]2C[C@H](N=[N+]=[N-])[C@@H](CO)O2)c(=O)[nH]c1=O [ZDV, zidovudine]
CD4+ T cell counts (HIV-1 [10]): decreased

CC(CC(=O)C[C@@H](C)[C@H]1C[C@H](O)[C@@]2(C)C3=C(C(=O)C[C@]12C)[C@@]1(C)CCC(=O)C(C)(C)[C@@H]1CC3)C(=O)O (stereo partly drawn) [ganolucidic acid A]
inhibition of HIV-1 protease (HIV-1 PR): significant

C[C@H](CCC=C(CO)CO)[C@H]1CC[C@@]2(C)C3=CC[C@H]4C(C)(C)C(=O)CC[C@]4(C)C3=CC[C@]12C [Ganoderiol F]
activity as anti-HIV-1 agents (HIV-1 [5]): active

C=CCO [allyl alcohol]
cell proliferation of HIV-1-infected cells [3]: strongly depressed; also recorded: completely inhibited
